Source: PubChem BioAssay (NCI)
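Exposure lasted 48 hours, with cells grown in 96-well plates and compounds tested at five concentrations. Here, GI50 denotes the concentration required for 50% inhibition of growth. Definition used: TGI = concentration required for complete inhibition of growth.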

How the values were obtained:
Test in all cases: NCI tumour cell line growth inhibition, 48 h
HCC-2998 colon = system: HCC-2998 colon
U251 CNS = system: U251 CNS
SNB-78 CNS = system: SNB-78 CNS
UACC-62 melanoma = system: UACC-62 melanoma
MOLT-4 leukemia = system: MOLT-4 leukemia
SK-OV-3 ovarian = system: SK-OV-3 ovarian
DLD-1 colon = system: DLD-1 colon
NCI/ADR-RES ovarian = system: NCI/ADR-RES ovarian
MDA-MB-435 = system: MDA-MB-435
T-47D breast = system: T-47D breast

| SMILES | TGI (HCC-2998 colon) [µM] | TGI (U251 CNS) [µM] | TGI (SNB-78 CNS) [µM] | TGI (UACC-62 melanoma) [µM] | TGI (MOLT-4 leukemia) [µM] | TGI (SK-OV-3 ovarian) [µM] | TGI (DLD-1 colon) [µM] | GI50 (NCI/ADR-RES ovarian) [µM] | TGI (NCI/ADR-RES ovarian) [µM] | GI50 (HCC-2998 colon) [µM] | GI50 (MDA-MB-435) [µM] | TGI (MDA-MB-435) [µM] | GI50 (T-47D breast) [µM] | TGI (T-47D breast) [µM] | GI50 (U251 CNS) [µM] | GI50 (UACC-62 melanoma) [µM] | GI50 (MOLT-4 leukemia) [µM] | GI50 (SK-OV-3 ovarian) [µM] |
| --- | --- | --- | --- | --- | --- | --- | --- | --- | --- | --- | --- | --- | --- | --- | --- | --- | --- | --- |
| CN(C(=O)C12C3C4C1C1C2C3C41C(=O)N(C)C(C)(C)C)C(C)(C)C (stereo not drawn) | > 50 | > 50 | > 50 | > 50 | > 50 | > 50 | – | – | – | – | – | – | – | – | – | – | – | – |
| CC1(C)C(=O)CCC(=O)C(C)(C)C2=CC=C(O2)C(C)(C)C(=O)CCC(=O)C(C)(C)C2=CC=C1O2 | > 100 | > 100 | > 100 | – | > 100 | > 100 | – | – | – | – | – | – | – | – | – | – | – | – |
| Cc1no[n+]([O-])c1/C=N/NS(=O)(=O)c1ccccc1 | > 100 | > 100 | – | > 100 | > 100 | > 100 | > 100 | – | – | – | – | – | – | – | – | – | – | – |
| COc1ccc(C2=NNC(c3cc(Cc4ccc(O)c(C5CC(c6ccc(OC)cc6)=NN5)c4)ccc3O)C2)cc1 (stereo not drawn) | > 100 | > 100 | – | 99.6 | > 100 | > 100 | – | 7.39 | > 100 | 46 | 8.52 | > 100 | 4.61 | > 100 | 5.84 | 10.6 | 17.8 | 31.6 |
| C/C(=C\CCc1ccsc1)CC/C=C(\C)CCCN1CCN(CCO)CC1 | 3.63 | 7.28 | – | 3.75 | 6.29 | 21 | – | 3.48 | 13.5 | 1.97 | 2.84 | 8.66 | 2.03 | 5.09 | 2.27 | 1.73 | 2.48 | 7.58 |
| O=C1NC(=O)C(N2CCc3ccccc32)=C1c1ccc(Cl)cc1 | > 25 | > 25 | – | > 25 | > 25 | > 25 | – | > 25 | > 25 | > 25 | > 25 | > 25 | > 25 | > 25 | > 25 | 24.8 | > 25 | > 25 |
| O=C1c2cccc3cccc(c23)C(=O)N1CC#Cc1ccc2c3c(cccc13)C(=O)N(CCN1CCNCC1)C2=O | 4.94 | 3.78 | – | 4.44 | 5.07 | 62.6 | – | > 100 | > 100 | 2.1 | 1.86 | 3.47 | 2.03 | 5.11 | 1.87 | 1.88 | 2.17 | 25.7 |
| O=c1c(-c2ccc3c(c2)OCO3)coc2c(CO)c(O)ccc12 | 3.89 | 5.03 | – | 3.59 | > 100 | 6.39 | – | 3.72 | 21.4 | 2.01 | 4.78 | 19.5 | 2.48 | 14.9 | 1.92 | 1.66 | 30.2 | 2.41 |
| Oc1[nH]c2ccc(Cl)cc2c1/C=c1/ccc2c(c1)N=C(c1ccc(C(F)(F)F)cc1)N=2 | 4.81 | 3.47 | – | 4.06 | 6.19 | 13.9 | – | 2.6 | 7.77 | 2.1 | 1.9 | 4.7 | 2.86 | 9.23 | 1.74 | 1.71 | 2.41 | 4.19 |
| CCN1CCN(CC(=O)Nc2nc3ccc(NCc4ccc(C)cc4)cc3s2)CC1 | 14.6 | 9.14 | – | 2.06 | 5.99 | 12.4 | – | 5.98 | 21.6 | 6.5 | 1.05 | 2.3 | 1.6 | 7.29 | 2.77 | 1.01 | 1.59 | 4.12 |
| CCc1ccc(Oc2nccc(-c3c(-c4ccc(F)cc4)ncn3C3CCNCC3)n2)cc1 | 7.61 | 9.16 | – | 9.08 | 15.8 | 9.21 | – | 4.69 | 12.9 | 3.94 | 4.47 | 8.77 | 4.3 | 11.6 | 4.06 | 4.6 | 7.15 | 4.37 |
| Cc1cc(N2CCN(C)CC2)nc(N(CCNc2ccnc3cc(Cl)ccc23)Cc2ccco2)n1 | 11.1 | 10.2 | – | 4.01 | 10.9 | 22.1 | – | 3.1 | 14.8 | 2.65 | 1.62 | 3.39 | 2.07 | 6.41 | 3.11 | 2.02 | 2.8 | 10.4 |
| CC1(C)CC(=O)C(CC2C(=O)c3ccccc3C2=O)C(=O)C1C(=O)C(=O)Nc1cccc2ccc(O)cc12 (stereo not drawn) | > 100 | > 100 | – | > 100 | > 100 | > 100 | – | – | > 100 | – | – | > 100 | – | > 100 | – | – | – | – |
| COc1cc(-c2nccc3[nH]c(-c4cccc5[nH]ccc45)nc23)cc(OC)c1OC | 2.28 | 13 | – | 20.9 | 13.2 | 14.8 | – | < 0.01 | 18.1 | < 0.01 | < 0.01 | < 0.01 | 4.94 | 27.3 | < 0.01 | < 0.01 | < 0.01 | < 0.01 |
| Nc1ncnc2c1nc(N)n2C1OC(CO)C(O)C1O (stereo not drawn) | 1.66 | 7.06 | – | 1.2 | > 24.4 | 3.45 | – | 0.697 | 3.29 | 0.32 | 0.153 | 0.773 | 0.449 | 2.68 | 1.35 | 0.251 | 1.76 | 0.52 |
| C=C(CS(=O)(=O)c1ccccc1)C(=O)OCC | 35.1 | 30.7 | – | 13.8 | 17.8 | 28 | 21.4 | – | – | – | – | – | – | – | – | – | – | – |
| CS(=O)/C(C#N)=C\C=C\c1cccc(Cl)c1 (stereo not drawn) | 3.3 | 7.81 | – | 3.54 | 16.4 | 26.4 | – | 2.66 | 37.7 | 1.8 | 2.34 | 10.6 | 2.67 | 17 | 1.71 | 1.18 | 2.54 | 10.6 |
